From US10184129B2, “Method and compositions to promote plant growth in metal contaminated environments” (The Regents of the University of California, priority 2011, dated 2019)
“Also recorded” adds a separate entry of the source.

Test system: Col-0 wt and als7-1/swa2-2 roots
Test: Root growth of seedlings in a hydroponic environment supplemented with AlCl3 (pH 4.2)
Assay type: in vivo, Arabidopsis
Conditions: for increase in root growth: pH 4.2
Method: Seedlings of Col-0 wt and als7-1/swa2-2 were grown for 7 d hydroponically either in the absence or presence 25 μM AlCl3 (pH 4.2), after which root tissue was collected for analysis of spermine content by HPLC. […] Seedlings of Col-0 wt and als7-1/swa2-2 were grown in a hydroponic environment either in the absence or presence of 25 μM AlCl3 (pH 4.2) with or without 25 μM spermine. After 7 d growth, root length was measured for all treatments, with mean±SE values determined from 30 roots of each. […] Seedlings of Col-0 wt were grown either in the absence or presence of 1.5 mM DEMO in a hydroponic environment supplemented with increasing concentrations of AlCl3 (pH 4.2). After 7 d, root length was measured for all treatments, with mean±SE values determined from 30 roots of each. […] Seedlings of Col-0 wt were grown hydroponically either in the absence or presence of 25 μM spermine for 5 d after which the samples were transferred to a solution with or without 25 μM AlCl3 (pH 4.2) containing either 0 or 25 μM spermine. Following 2 d of growth, root tissue was collected and treated for measurement of Al content by ICP-OES.
For all growth experiments performed, Col-0 wt and mutant seeds were surface-sterilized with household bleach and cold stratified for 4 d at 4° C. in the dark for synchronization of germination. Seeds were subsequently suspended in 0.15% (w/v) agarose and for planting on either soaked gel plates or hydroponic plates. Further description of the growth experiments can be found in Larsen, P. B., Geisler, M. J. B., Jones, C. A., Williams, K. M., and Cancel, J. D. (2005), ALS3 encodes a phloem-localized ABC transporter-like protein that is required for aluminum tolerance in Arabidopsis. Plant J. 41, 353-63. All growth analyses were done in a Percival 136LLVL plant growth chamber under a 24 hr light cycle at 20° C. Adult plants were grown in soil under a 24 hr light cycle at 20° C. in a plant growth room supplemented with Sylvania Gro-Lite® fluorescent bulbs.

NCCCNCCCCNCCCN [spermine]
root growth in the presence of Al (in words) (Col-0 wt and als7-1/swa2-2 seedlings, 25 μM spermine, 25 μM AlCl3 pH 4.2, hydroponic, 7 d): increases root growth; also recorded: substantial increase in root growth
increase in root growth (Col-0 wt, 25 μM spermine, 25 or 50 μM AlCl3, hydroponic, 7 d): ≥ 6 fold
root growth compared to untreated controls (in words) (Col-0 wt, spermine added, 25 or 50 μM AlCl3, hydroponic): remained significantly inhibited
increase in root growth (als7-1/swa2-2, 25 μM spermine, 25 or 50 μM AlCl3, hydroponic, 7 d): ≥ 6 fold
root growth in the presence of Al (in words) (als7-1/swa2-2, spermine added, 25 or 50 μM AlCl3, hydroponic): almost full restoration
